Values after ≈ are worked out from the molar mass of the structure shown.
Experiments:
Type in all cases: functional
Cryptococcus neoformans [1] = experiment: Antifungal activity against Cryptococcus neoformans PFCC 93-589 assessed as increase in extracellular potassium leakage at 2 times MIC incubated up to 12 hrs measured per mg dry weight of cell by spectrophotometric method; conditions: time hrs <=12
Cryptococcus neoformans [2] = experiment: Antifungal activity against Cryptococcus neoformans PFCC 93-589 by broth microdilution assay
Cryptococcus neoformans [3] = experiment: Fungicidal activity against Cryptococcus neoformans PFCC 93-589 by broth microdilution assay
Cryptococcus neoformans [4] = experiment: Antifungal activity against Cryptococcus neoformans PFCC 93-589 assessed as half minimum inhibitory concentration by broth microdilution assay

SMILES: C[C@@H]1[C@H](O)[C@@H](C)/C=C/C=C/C=C/C=C/C=C/C=C/C=C/[C@H](O[C@@H]2O[C@H](C)[C@@H](O)[C@H](N)[C@@H]2O)C[C@@H]2O[C@](O)(C[C@@H](O)C[C@@H](O)[C@H](O)CC[C@@H](O)C[C@@H](O)CC(=O)O[C@H]1C)C[C@H](O)[C@H]2C(=O)O [AMPHOTERICIN B]
- Activity (Cryptococcus neoformans [1]): 3.56 mM
- MIC (Cryptococcus neoformans [2]): 0.25 µg/mL (≈ 0.271 µM)
- MFC (Cryptococcus neoformans [3]): 1 µg/mL (≈ 1.08 µM)
- MIC (Cryptococcus neoformans [4]): 0.125 µg/mL (≈ 0.135 µM)

— ChEMBL document CHEMBL4814046, “Inhibitory effects and mechanism of antifungal action of the natural cyclic depsipeptide, aureobasidin A against Cryptococcus neoformans” (Bioorg Med Chem Lett, 2021)
